Measurements taken from US6077525A, “Use of conjugated linoleic acids” (The George Washington University, priority 1998, dated 2000).
Like-named read-outs stand apart in the source and are kept apart here.

How the values were obtained:
[1] = system: human platelet thromboxane production (cyclooxygenase pathway); assay: Human platelet thromboxane (TXB2) formation from [14C]-arachidonic acid, TLC; assay type: cell-based; conditions: for TXB2 formation (FIG. 2): CLA mix 3 and 10 μM, 9,11-18:2 30 and 60 μM, 10,12-18:2 3 and 10 μM, with ionophore A23187; for inhibitory effectiveness on platelet TXB2 formation, CLA mix and pure isomers compared: CLA mix vs pure 9,11- and 10,12-18:2; for IC50: Platelet, read-out: Inhibitory Potency (I50); for potency as thromboxane inhibitor relative to non-hydroxylated parent: 13-HODE vs 9,11-18:2
Method: (§1) Human platelets were isolated from donors according to previously established procedures (13) and resuspended in Krebs-Henseleit buffer (pH 7.4) at a concentration of 3×10^8 platelets/ml. The platelets (0.5 ml) were placed in a 37° C. water bath for several minutes and then treated with either vehicle (ethanol) or various concentrations of the fatty acid to be tested for 2 min. Next, 10 μM (final concentration) [^14 C]-arachidonic acid was added. In some experiments, 20 μM calcium ionophore A23187 was added about 5 sec. prior to the addition of the arachidonic acid substrate. Ten minutes after the addition of arachidonic acid, the reaction was terminated with 10% formic acid and the products extracted with chloroform-methanol. Product separation and analysis by thin layer chromatography (TLC) was carried out as previously described using unlabeled arachidonic acid, 15-HETE and thromboxane B2 as standards (11). The various radioactive product and unreacted substrate bands were visualized by autoradiography and quantitated either by scraping the bands from the TLC plate and counting the samples in a liquid scintillation counter or by determining the relative band intensities using a Personal Densitometer SI (Molecular Dynamics, Sunnyvale, Calif.) with ImageQuaNT v4.2 software).
To obtain the results shown in FIG. 2, the human platelets were pretreated with the various concentrations of CLA isomers followed by the addition of calcium ionophore A23187 and [^14 C]-arachidonic acid. Products were isolated, separated by thin layer chromatography as described above. […] The identities of the bands in decreasing order of Rf are as follows: AA-unreacted arachidonic acid, 12-HETE-12-hydroxyeicosatetraenoic acid (a platelet 12-lipoxygenase metabolite), HHT-12-hydroxyheptadecatrienoic acid, TXB2 -thromboxane B2, the latter two products are cyclooxygenase metabolites, origin-sample application point.
The data shown were obtained by determining the effects of various concentrations of CLA isomers on platelet thromboxane B2 production. […] [^14 C]-thromboxane B2 production by fatty acid-treated platelets relative to vehicle-treated platelets was determined and expressed as % control. Symbols used for various fatty acids: ΔΔ, CLA mix .box-solid.-.box-solid., 10,12-18:2, .smallcircle.-.smallcircle., 9,11-18:2, *-*, 13-HODE, .gradient.-.gradient., 9-HODE.

[2] = system: 12-lipoxygenase (human platelet 12-HETE formation); assay: Human platelet 12-HETE formation from [14C]-arachidonic acid, TLC; assay type: cell-based; conditions: CLA mix 3 and 10 μM; 9,11-18:2 30 and 60 μM; 10,12-18:2 3 and 10 μM; with ionophore A23187
Method: as §1, with “Ten minutes after the addition of arachidonic acid, the reaction was terminated with 10% formic acid and the products extracted with chloroform-methanol.” left out, “software). To obtain the results shown in FIG. 2, the human platelets were pretreated with the various concentrations of CLA isomers followed by the addition of calcium ionophore A23187 and [^14 C]-arachidonic acid. […]” for “software).”

[3] = human platelets, exogenous arachidonic acid, calcium ionophore A23187, mean ± S.E.M., 6-11 donors

IC50 [1, 3] [µM] | Structure (SMILES) | TXB2 formation (FIG. 2) [1] | inhibitory effectiveness on platelet TXB2 formation, CLA mix and pure isomers compared [1] | 12-HETE production (FIG. 2) [2] | decrease of inhibitory effectiveness relative to 10,12-18:2 ([1]; 9-HODE vs 10,12-18:2) | potency as thromboxane inhibitor relative to non-hydroxylated parent ([1]; 9-HODE vs 10,12-18:2) | enhancement of inhibitory potency relative to the non-hydroxylated analog ([1]; 13-HODE vs 9,11 isomer) | IC50 ([1]; Homo sapiens) [µM]
16 ± 1.8 | CCCCCC/C=C/C=C\CCCCCCCC(=O)O [9,11-18:2, 9,11-octadecadienoic acid] | TXB2 was inhibited | approximately the same | no effect on the 12-HETE production | – | – | – | –
13 ± 4.1 | CCCCC/C=C\C=C\CCCCCCCCC(=O)O [10,12-18:2, 10,12-octadecadienoic acid] | TXB2 was inhibited | approximately the same | no effect on the 12-HETE production | – | – | – | –

Second part, the compound before the results:

Structure (SMILES) | IC50 [1, 3] [µM] | TXB2 formation (FIG. 2) [1] | inhibitory effectiveness on platelet TXB2 formation, CLA mix and pure isomers compared [1] | 12-HETE production (FIG. 2) [2] | decrease of inhibitory effectiveness relative to 10,12-18:2 ([1]; 9-HODE vs 10,12-18:2) | potency as thromboxane inhibitor relative to non-hydroxylated parent ([1]; 9-HODE vs 10,12-18:2) | enhancement of inhibitory potency relative to the non-hydroxylated analog ([1]; 13-HODE vs 9,11 isomer) | IC50 ([1]; Homo sapiens) [µM]
CCCCC/C=C\C=C\C(O)CCCCCCCC(=O)O (stereo not drawn) [9-HODE] | 34 ± 6.5 | – | – | – | more than two | less potent than the corresponding non-hydroxylated parent 10,12-18:2 | – | –
CCCCC[C@H](O)/C=C/C=C\CCCCCCCC(=O)O [13-HODE] | 3 ± 0.7 | – | – | – | – | more potent as a thromboxane inhibitor than the parent 9,11-18:2 | about five | –
CCCCCCCC/C=C\CCCCCCCC(=O)O [Oleic acid] | – | – | – | – | – | – | – | > 60
